Measurements taken from BigSolDB 2.1.

solubility (mole fraction) (in n-hexane, 293.15 K)	solubility (mole fraction) (in n-hexane, 298.15 K)	solubility (mole fraction) (in n-hexane, 303.15 K)	solubility (mole fraction) (in n-hexane, 308.15 K)	solubility (mole fraction) (in n-hexane, 313.15 K)	solubility (mole fraction) (in n-octanol, 293.15 K)	solubility (mole fraction) (in n-octanol, 298.15 K)	solubility (mole fraction) (in n-octanol, 303.15 K)	solubility (mole fraction) (in n-octanol, 308.15 K)	solubility (mole fraction) (in n-octanol, 313.15 K)	SMILES
4.22e-05	5.67e-05	6.92e-05	8.55e-05	0.000105	0.00362	0.00423	0.00511	0.0058	0.00664	CC12CC3CC(C)(C1)CC(NS(=O)(=O)c1ccc([N+](=O)[O-])cc1)(C3)C2
0.000265	0.000307	0.000366	0.000444	0.000495	0.00383	0.00452	0.00562	0.0068	0.00809	Cc1cc(C)c(S(=O)(=O)NC23CC4CC(CC(C4)C2)C3)c(C)c1
